Each structure is given as a SMILES string.

We go through 10 compounds from the SangsterLogP compilation.

This series is described as follows: method code RP-HPLC, from DOI: 10.1021/jm030408h, PMID: 14971904.

As to `CCCCCc1cc(O)c2c(c1)OC(C)(C)[C@@H]1CCC(C)=C[C@@H]21`, the log partition coefficient (logP) came out at 6.99.

`C[N+](C)([O-])CCC=C1c2ccccc2CCc2ccccc21` registered a logP of 3.14.

For the compound `C#CCCCC(=O)c1cc(C(C)(C)C)c(O)c(C(C)(C)C)c1`, the logP amounted to 5.63.

Compound `OC(CNCC(O)C1CCc2cc(F)ccc2O1)C1CCc2cc(F)ccc2O1` (stereo not given) displayed a logP of 2.76.

For `COc1ccc2c3c1O[C@H]1C[C@@H](O)C=C[C@@]31CCN(C)C2`, the logP worked out at 0.21.

For `CN1CC(C(=O)NC2(C)OC3(O)C4CCCN4C(=O)C(Cc4ccccc4)N3C2=O)C=C2c3cccc4[nH]cc(c34)CC21` (stereo not given), the logP is 4.38.

`CC[C@H]1OC(=O)[C@H](C)[C@@H](O[C@H]2C[C@@](C)(OC)[C@@H](O)[C@H](C)O2)[C@H](C)[C@@H](O[C@@H]2O[C@H](C)C[C@H](N(C)C)[C@H]2O)[C@](C)(O)C[C@@H](C)CN(C)[C@H](C)[C@@H](O)[C@]1(C)O` showed a logP of 0.9.

With `CCc1nn(CCCN2CCN(c3cccc(Cl)c3)CC2)c(=O)n1CCOc1ccccc1`, the logP worked out at 4.95.

Compound `CCC(C)n1ncn(-c2ccc(N3CCN(c4ccc(OC[C@H]5CO[C@](Cn6cncn6)(c6ccc(Cl)cc6Cl)O5)cc4)CC3)cc2)c1=O` (stereo not given in full) came in with a logP of 5.9.

The compound `COc1ccc2c3c1O[C@H]1C(=O)CC[C@@]4(O)[C@@H](C2)N(C)CC[C@]314` returned a logP of 0.37.
